Measurements reported in patent publication US9751851B2, “Molecules and compositions that inhibit gram negative bacteria and their uses” (THE TRUSTEES OF PRINCETON UNIVERSITY, priority 2013, dated 2017).
Read-outs that look alike come from different tables or passages of the source.

Columns and labels:
[1] = tested on: wild-type P. aeruginosa PA14; test: microbe, parasite or virus in culture; assay type: cell-based; details: for inhibition at 100 µM / Efficacy (%): reduction of pyocyanin vs WT P. aeruginosa PA14: 0% = WT level, 100% = background medium; for IC50: read-out: IC50 for inhibition of pyocyanin production; for inhibition of pyocyanin production (in words): wild-type P. aeruginosa PA14, end point assays at 100 μM
Experimental: Methods. The oxidized form of pyocyanin imparts a green color to P. aeruginosa cultures, making the production of pyocyanin convenient to monitor by UV/Vis absorbance. Overnight P. aeruginosa cultures were subcultured into 5 mL fresh medium at 1:1000 dilution. Synthetic compounds were assayed at 100 μM for end point assays and at concentrations ranging from 200 nM to 200 μM for titrations following 17 hr of aerobic growth with shaking at 37° C. Cells were separated from culture fluids via centrifugation at 13,000 rpm for 15 min. Culture fluids were passed through 0.22 μm syringe driven filters (Millipore). Cell-free culture fluids were analyzed for pyocyanin using wavelength scans on a Beckman Coulter DU-800 spectrophotometer from 200 nm to 800 nm 695 nm was chosen for graphical representation. Titration data were fit with a variable-slope sigmoidal dose-response curve using GraphPad Prism to determine the IC50 values.
The compounds of the first library were assayed in wild-type (WT) P. aeruginosa PA14. Pyocyanin was used as a read-out for quorum sensing activity based on its absorbance at 695 nm. The efficacy of the compounds at reducing pyocyanin levels was calculated with respect to WT levels of pyocyanin, where WT levels of pyocyanin would lead to a 0% efficacy, and an absorbance equal to the background medium would lead to a 100% efficacy. Agonists that increase pyocyanin production have negative efficacy values.

[2] = tested on: P. aeruginosa PA14; test: Growth of P. aeruginosa monitored by absorbance at 600 nm; assay type: cell-based
[3] = Pseudomonas aeruginosa, PA14, 17 h, read-out: Efficacy (%), Table 3
[4] = Pseudomonas aeruginosa, PA14, 17 h, read-out: Efficacy (%), Table 4
[5] = Pseudomonas aeruginosa, PA14, 17 h
[6] = WT P. aeruginosa PA14, 17 hr growth, titration

How did the inhibition at 100 µM [1, 3] turn out when `O=C(COc1cccc(Br)c1)Nc1cc(C(F)(F)F)cc(C(F)(F)F)c1` [S60, 1-amino-3,5-bis(trifluoromethyl)-C6-3-bromophenoxyhybrid] was run?
The inhibition at 100 µM was 44%.

What about the “Efficacy (%)” value ([1]; Table 3) of the same compound?
Its value is 44 ± 8%.

`O=C(COc1cccc(Br)c1)Nc1ccncc1C(F)(F)F` [S62, 4-amino-3-trifluoromethylpyridine-C6-3-bromophenoxyhybrid] was tested. Which inhibition at 100 µM [1, 3] did it give?
Its inhibition at 100 µM is 15%.

What about the “Efficacy (%)” value ([1]; Table 3) of the same compound?
The value was 15 ± 7%.

With `O=C(COc1ccccc1Br)Nc1ccnc(C(F)(F)F)c1` [S65, 4-amino-2-trifluoromethylpyridine-C6-2-bromophenoxyhybrid] as the compound, how does the inhibition at 100 µM [1, 4] read?
The inhibition at 100 µM was 94%.

What about the “Efficacy (%)” value ([1]; Table 4) of the same compound?
Its value is 94 ± 4%.

For `O=C(COc1cccc(I)c1)Nc1ccnc(C(F)(F)F)c1` [S66, 4-amino-2-trifluoromethylpyridine-C6-3-iodophenoxyhybrid], which inhibition at 100 µM [1, 4] is on record?
Its inhibition at 100 µM is 95%.

And the “Efficacy (%)” value ([1]; Table 4)?
Its value is 95 ± 3%.

For `O=C(COc1cccc(Cl)c1)Nc1ccnc(C(F)(F)F)c1` [S67, 4-amino-2-trifluoromethylpyridine-C6-3-chlorophenoxyhybrid], which inhibition at 100 µM [1, 4] is on record?
Its inhibition at 100 µM is 101%.

And the “Efficacy (%)” value ([1]; Table 4)?
The value was 101 ± 3%.

`O=C(COc1ccc(F)cc1)Nc1ccnc(C(F)(F)F)c1` [S68, 4-amino-2-trifluoromethylpyridine-C6-4-fluorophenoxyhybrid] was tested. Which inhibition at 100 µM [1, 4] did it give?
The inhibition at 100 µM was 54%.

And the “Efficacy (%)” value ([1]; Table 4)?
Its value is 54 ± 4%.

For `O=C(COc1ccccc1F)Nc1ccnc(C(F)(F)F)c1` [S69, 4-amino-2-trifluoromethylpyridine-C6-2-fluorophenoxyhybrid], which inhibition at 100 µM [1, 4] is on record?
Its inhibition at 100 µM is 78 ± 3%.

How did the inhibition at 100 µM [1, 4] turn out when `O=C(COc1ccc(F)cc1F)Nc1ccnc(C(F)(F)F)c1` [S70, 4-amino-2-trifluoromethylpyridine-C6-2,4-bisfluorophenoxyhybrid] was run?
Its inhibition at 100 µM is 49 ± 3%.

How did the inhibition at 100 µM [1, 4] turn out when `O=C(COc1c(F)cccc1F)Nc1ccnc(C(F)(F)F)c1` [S71, 4-amino-2-trifluoromethylpyridine-C6-2,6-bisfluorophenoxyhybrid] was run?
Its inhibition at 100 µM is 66 ± 4%.

How did the inhibition at 100 µM [1, 4] turn out when `O=C(COc1c(F)c(F)c(F)c(F)c1F)Nc1ccnc(C(F)(F)F)c1` [S72, 4-amino-2-trifluoromethylpyridine-C6-perfluorophenoxyhybrid] was run?
Its inhibition at 100 µM is 21 ± 14%.

`O=C(COc1cccc([N+](=O)[O-])c1)Nc1ccnc(C(F)(F)F)c1` [S73, 4-amino-2-trifluoromethylpyridine-C6-3-nitrophenoxyhybrid] was tested. Which inhibition at 100 µM [1, 4] did it give?
Its inhibition at 100 µM is 39 ± 36%.

Which inhibition at 100 µM [1, 4] does the source give for `N#Cc1cccc(OCC(=O)Nc2ccnc(C(F)(F)F)c2)c1` [S74, 4-amino-2-trifluoromethylpyridine-C6-3-cyanophenoxyhybrid] here?
Its inhibition at 100 µM is 0.48 ± 7%.

For `O=C(COc1cccc(C(F)(F)F)c1)Nc1ccnc(C(F)(F)F)c1` [S75, 4-amino-2-trifluoromethylpyridine-C6-3-trifluoromethylphenoxyhybrid], which inhibition at 100 µM [1, 4] is on record?
The inhibition at 100 µM was 59 ± 3%.

How did the inhibition at 100 µM [1, 4] turn out when `Cc1cccc(OCC(=O)Nc2ccnc(C(F)(F)F)c2)c1` [S76, 4-amino-2-trifluoromethylpyridine-C6-3-methylphenoxyhybrid] was run?
The inhibition at 100 µM was 81%.

What about the “Efficacy (%)” value ([1]; Table 4) of the same compound?
Its value is 81 ± 4%.

Which inhibition at 100 µM [1, 4] does the source give for `O=C(COc1cccc(O)c1)Nc1ccnc(C(F)(F)F)c1` [S77, 4-amino-2-trifluoromethylpyridine-C6-3-hydroxyphenoxyhybrid] here?
Its inhibition at 100 µM is 70%.

And the “Efficacy (%)” value ([1]; Table 4)?
The value was 70 ± 7%.

How did the inhibition at 100 µM [1, 4] turn out when `O=C(COc1ccccc1O)Nc1ccnc(C(F)(F)F)c1` [S78, 4-amino-2-trifluoromethylpyridine-C6-2-hydroxyphenoxyhybrid] was run?
Its inhibition at 100 µM is 95%.

And the “Efficacy (%)” value ([1]; Table 4)?
The value was 95 ± 4%.

With `O=C(CSc1cccc(F)c1)Nc1ccnc(C(F)(F)F)c1` [S79, 4-amino-2-trifluoromethylpyridine-C6-3-fluoroarylsulfide hybrid] as the compound, how does the inhibition at 100 µM [1, 4] read?
The inhibition at 100 µM was 94%.

And the “Efficacy (%)” value ([1]; Table 4)?
The value was 94 ± 4%.

Which results are given for `O=C(CNc1cccc(F)c1)Nc1ccnc(C(F)(F)F)c1` [S80, 4-amino-2-trifluoromethylpyridine-C6-3-fluoroaniline hybrid]?
inhibition at 100 µM [1, 4]: 100%; Efficacy (%) ([1]; Table 4): 100 ± 4%

Which inhibition at 100 µM [1, 4] does the source give for `O=C(CCCCC#Cc1cccc(F)c1)Nc1ccnc(C(F)(F)F)c1` [S82, 7-(3-fluorophenyl)-N-(2-(trifluoromethyl)pyridin-4-yl)hept-6-ynamide] here?
The inhibition at 100 µM was 97%.

And the “Efficacy (%)” value ([1]; Table 4)?
Its value is 97 ± 4%.

`O=C(CCCCCCc1cccc(F)c1)Nc1ccnc(C(F)(F)F)c1` [S83, 7-(3-fluorophenyl)-N-(2-(trifluoromethyl)pyridin-4-yl)heptanamide] was tested. Which inhibition at 100 µM [1, 4] did it give?
Its inhibition at 100 µM is 96%.

What about the “Efficacy (%)” value ([1]; Table 4) of the same compound?
The value was 96 ± 4%.

How did the IC50 [1, 5] turn out when `CCCCCCCCCNC(=O)CC(=O)c1ccccc1` [V-06-018, reference compound] was run?
The IC50 was 18 µM.

How did the inhibition at 100 µM ([1]; Pseudomonas aeruginosa, PA14, 17 h, read-out: Efficacy (%), Table 1, negative = agonist) turn out when `CCCCCCCCCC(=O)CC(=O)Nc1ccncc1` [compound 14, 3OC12-4-aminopyridine] was run?
Its inhibition at 100 µM is 63 ± 2%.

And the IC50 [1, 5]?
The IC50 was 0.16 µM.

What does the source list for `CCCCCCCCCCCC(=O)Nc1ccnc(F)c1` [compound 15, C12-4-amino-2-fluoropyridine]?
inhibition at 100 µM ([1]; Pseudomonas aeruginosa, PA14, 17 h, read-out: Efficacy (%), Table 2, negative = agonist): 70%; Efficacy (%) ([1]; Table 2, negative = agonist): 70 ± 2%

With `O=C(COc1cccc(F)c1)Nc1ccnc(C(F)(F)F)c1` [compound 17, 4-amino-2-trifluoromethylpyridine-C6-3-fluorophenoxyhybrid] as the compound, how does the inhibition at 100 µM [1, 4] read?
Its inhibition at 100 µM is 103%.

What about the “Efficacy (%)” value ([1]; Table 4) of the same compound?
Its value is 103 ± 3%.

What about the “inhibition of pyocyanin production (in words)” value (“inhibition … (in words)” below) [1] of the same compound?
The value was “highly effective at blocking pyocyanin production”.

`O=C(CCCCCCCCCCN=C=S)CC(=O)NC1CCOC1=O` (centres unmarked) [itc-13, reference compound] was tested. Which IC50 [1, 6] did it give?
The IC50 was 56 µM.

How did the “inhibition … (in words)” value [1] turn out when `O=C(CCCOc1cccc(Br)c1)N[C@H]1CCOC1=O` [mBL] was run?
The value was “most effective inhibitor of pyocyanin production”.

For `O=C(CCCOc1cccc(Cl)c1)NC1CCSC1=O` (centres unmarked) [mCTL], which IC50 [1, 6] is on record?
Its IC50 is 9 µM.

What about the “inhibition … (in words)” value [1] of the same compound?
Its value is “potent inhibition of pyocyanin”.

What about the “effect on P. aeruginosa PA14 growth” value [2] of the same compound?
The value was “not affecting P. aeruginosa PA14 growth”.

Which “inhibition … (in words)” value [1] does the source give for “chlorothiolactone [CTL, reference compound]” here?
The value was “Neither CL nor CTL inhibited pyocyanin production”.
